Measurements from paper PMC8070004, “Isorhamnetin Ameliorates Dry Eye Disease via CFTR Activation in Mice” (International Journal of Molecular Sciences, 2021).

Experiments:
[1] = molecular target: T1, human ΔF508-CFTR (Homo sapiens, UniProt P13569, DEL508-508); assay: Apical membrane current in FRT cells expressing low-temperature-rescued ΔF508-CFTR; format: cell-based
T1 construct: expressed in transfected cells; host or cells: FRT (Fisher rat thyroid) cells, provided by Dr. Alan Verkman; 27 °C for 24 h
T1 sequence (P13569 with tags, fused parts or gaps DEL508-508): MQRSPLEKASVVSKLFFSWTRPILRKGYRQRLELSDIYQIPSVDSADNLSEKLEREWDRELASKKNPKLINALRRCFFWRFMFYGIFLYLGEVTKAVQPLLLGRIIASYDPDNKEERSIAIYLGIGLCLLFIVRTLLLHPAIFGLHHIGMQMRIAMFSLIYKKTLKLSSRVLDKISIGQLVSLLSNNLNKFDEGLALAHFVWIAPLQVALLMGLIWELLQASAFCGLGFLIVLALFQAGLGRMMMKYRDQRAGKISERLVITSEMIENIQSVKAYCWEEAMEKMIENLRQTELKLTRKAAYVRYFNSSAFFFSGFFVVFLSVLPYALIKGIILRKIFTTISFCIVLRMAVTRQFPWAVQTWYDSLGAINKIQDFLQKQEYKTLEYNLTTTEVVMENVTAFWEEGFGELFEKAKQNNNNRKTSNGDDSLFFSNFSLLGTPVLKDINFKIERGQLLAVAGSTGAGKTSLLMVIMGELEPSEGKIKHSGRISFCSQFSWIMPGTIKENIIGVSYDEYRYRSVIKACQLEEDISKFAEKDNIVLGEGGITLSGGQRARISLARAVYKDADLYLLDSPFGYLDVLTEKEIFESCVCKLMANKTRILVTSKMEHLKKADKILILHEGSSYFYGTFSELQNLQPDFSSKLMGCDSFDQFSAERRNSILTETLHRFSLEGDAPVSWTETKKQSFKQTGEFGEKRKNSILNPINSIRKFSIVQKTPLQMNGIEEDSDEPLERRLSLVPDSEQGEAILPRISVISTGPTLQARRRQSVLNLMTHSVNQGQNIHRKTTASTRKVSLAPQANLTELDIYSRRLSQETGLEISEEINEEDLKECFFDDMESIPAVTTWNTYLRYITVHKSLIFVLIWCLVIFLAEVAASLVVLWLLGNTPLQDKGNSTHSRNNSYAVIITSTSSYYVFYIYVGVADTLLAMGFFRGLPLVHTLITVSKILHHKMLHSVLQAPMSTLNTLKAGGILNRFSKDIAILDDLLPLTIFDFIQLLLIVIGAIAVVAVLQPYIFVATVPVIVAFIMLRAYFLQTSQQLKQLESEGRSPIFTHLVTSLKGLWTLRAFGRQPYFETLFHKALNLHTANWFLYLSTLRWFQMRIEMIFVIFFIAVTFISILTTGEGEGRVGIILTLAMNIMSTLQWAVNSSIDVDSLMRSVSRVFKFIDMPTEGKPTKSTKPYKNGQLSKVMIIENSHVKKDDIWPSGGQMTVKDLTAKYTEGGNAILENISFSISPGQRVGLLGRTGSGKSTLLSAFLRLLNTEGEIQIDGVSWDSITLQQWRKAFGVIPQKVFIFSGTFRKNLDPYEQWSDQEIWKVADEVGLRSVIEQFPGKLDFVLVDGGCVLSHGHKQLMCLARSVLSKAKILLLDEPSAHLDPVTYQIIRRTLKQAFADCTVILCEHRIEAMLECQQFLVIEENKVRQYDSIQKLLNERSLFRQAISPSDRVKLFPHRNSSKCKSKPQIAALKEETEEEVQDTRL
Experimental: (§1) Snapwell inserts containing CFTR-expressing FRT and T84 cells were mounted in Ussing chambers (Physiologic Instruments, San Diego, CA, USA). Forskolin, isorhamnetin, and CFTRinh-172 were added to the apical and basolateral bath solution. For FRT cells, the apical bath was filled with a half-Cl^− solution and the basolateral bath was filled with HCO^3--buffered solution to generate transepithelial Cl^− gradient (apical, 64 mM; basolateral, 129 mM), and the basolateral membrane was permeabilized with 250 µg/mL amphotericin B. For T84 cells, symmetrical HCO^3--buffered solutions were used, and ENaC was inhibited with amiloride (100 µM). All cells were bathed for a 20-min stabilization period and aerated with 95% O2/5% CO2 at 37 °C. Apical membrane current and short-circuit current were measured with an EVC4000 Multi-Channel V/I Clamp (World Precision Instruments, Sarasota, FL, USA) and recorded using PowerLab 4/35 (AD Instruments, Castle Hill, Australia). Data were collected and analyzed with ADInstruments acquisition software Labchart Pro 7 software. The sampling rate was 4 Hz.

[2] = test system: CD-1 mice; assay: Tear volume by phenol red thread tear test in normal CD-1 mice; format: in vivo, mouse; details: single 2.5 μL ocular delivery, 30 µM isorhamnetin
Experimental: Tear volume was measured using phenol red threads (Zone-Quick, Oasis Medical, Glendora, CA, USA) by placing them in the lateral canthi of normal CD-1 or dry eye model-treated BL6 mice for 10 s using forceps. Tear volume was measured using a Vernier caliper as the length of thread wetting under a microscope. For normal CD-1 mice, serial measurements were done to evaluate compound pharmacodynamics compared to the vehicle after topical application of a single, 2.5-μL drop of compound formulations containing 20 μM forskolin, 30 μM isorhamnetin, or 20 μM CFTRinh-172 in PBS with 0.1% DMSO.

[3] = molecular target: T2, ENaC (Homo sapiens, UniProt P37088+P51168+P51170); assay: ENaC short-circuit current in T84 cells; format: cell-based; details: 30 μM applied 10 min prior to 100 µM amiloride
T2 construct: endogenous in cells; host or cells: T84 cells (provided by Dr. Min Goo Lee)
T2 sequence (P51168 whole entry): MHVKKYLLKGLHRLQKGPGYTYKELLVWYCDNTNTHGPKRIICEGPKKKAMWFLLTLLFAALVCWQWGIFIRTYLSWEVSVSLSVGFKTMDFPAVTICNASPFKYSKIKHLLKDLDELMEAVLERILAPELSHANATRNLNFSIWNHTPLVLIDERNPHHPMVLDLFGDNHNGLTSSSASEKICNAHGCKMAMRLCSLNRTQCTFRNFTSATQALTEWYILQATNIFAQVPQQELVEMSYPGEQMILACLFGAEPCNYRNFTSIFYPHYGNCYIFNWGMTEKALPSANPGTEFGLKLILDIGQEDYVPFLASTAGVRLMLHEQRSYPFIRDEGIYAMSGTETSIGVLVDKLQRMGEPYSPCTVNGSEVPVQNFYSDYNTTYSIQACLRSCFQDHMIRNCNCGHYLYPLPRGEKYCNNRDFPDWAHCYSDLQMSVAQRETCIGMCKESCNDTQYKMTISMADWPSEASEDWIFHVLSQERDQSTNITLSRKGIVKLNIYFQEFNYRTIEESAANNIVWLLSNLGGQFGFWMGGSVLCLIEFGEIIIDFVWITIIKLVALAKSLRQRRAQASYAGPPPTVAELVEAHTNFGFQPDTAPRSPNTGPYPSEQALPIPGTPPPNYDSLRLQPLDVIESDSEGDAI
T2 sequence (P37088 whole entry): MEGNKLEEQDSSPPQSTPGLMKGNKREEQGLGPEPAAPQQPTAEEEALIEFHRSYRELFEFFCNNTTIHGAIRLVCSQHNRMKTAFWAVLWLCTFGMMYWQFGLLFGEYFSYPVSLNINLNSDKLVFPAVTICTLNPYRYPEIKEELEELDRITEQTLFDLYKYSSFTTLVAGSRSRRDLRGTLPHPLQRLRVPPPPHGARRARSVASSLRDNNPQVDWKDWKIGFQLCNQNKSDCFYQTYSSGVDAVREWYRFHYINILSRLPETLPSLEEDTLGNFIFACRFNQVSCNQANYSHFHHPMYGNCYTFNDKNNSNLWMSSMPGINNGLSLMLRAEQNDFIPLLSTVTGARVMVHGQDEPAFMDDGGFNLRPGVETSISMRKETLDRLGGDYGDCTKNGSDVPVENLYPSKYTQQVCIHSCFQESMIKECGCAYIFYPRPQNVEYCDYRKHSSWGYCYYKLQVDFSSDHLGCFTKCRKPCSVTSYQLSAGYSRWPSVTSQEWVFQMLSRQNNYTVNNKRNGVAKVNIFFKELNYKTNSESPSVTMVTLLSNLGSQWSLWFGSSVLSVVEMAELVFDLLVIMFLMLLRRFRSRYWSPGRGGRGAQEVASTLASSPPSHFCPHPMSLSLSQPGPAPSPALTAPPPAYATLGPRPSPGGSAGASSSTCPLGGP
T2 sequence (P51170 whole entry): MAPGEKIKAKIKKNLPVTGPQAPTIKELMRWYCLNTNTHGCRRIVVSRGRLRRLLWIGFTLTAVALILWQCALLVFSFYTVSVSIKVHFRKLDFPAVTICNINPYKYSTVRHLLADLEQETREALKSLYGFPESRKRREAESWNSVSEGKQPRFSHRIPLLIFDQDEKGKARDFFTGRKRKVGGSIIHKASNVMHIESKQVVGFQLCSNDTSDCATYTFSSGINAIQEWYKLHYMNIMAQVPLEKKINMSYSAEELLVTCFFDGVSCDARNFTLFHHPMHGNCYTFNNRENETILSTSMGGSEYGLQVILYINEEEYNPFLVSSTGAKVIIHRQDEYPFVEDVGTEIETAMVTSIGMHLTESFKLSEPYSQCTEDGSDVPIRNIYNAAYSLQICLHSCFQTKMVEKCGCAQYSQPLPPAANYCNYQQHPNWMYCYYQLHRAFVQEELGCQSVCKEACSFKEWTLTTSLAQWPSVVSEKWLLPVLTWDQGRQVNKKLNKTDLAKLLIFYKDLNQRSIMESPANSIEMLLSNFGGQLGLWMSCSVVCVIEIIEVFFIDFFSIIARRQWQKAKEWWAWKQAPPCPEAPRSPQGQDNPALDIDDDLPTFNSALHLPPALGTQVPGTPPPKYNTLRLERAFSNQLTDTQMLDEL
Experimental: as §1

[4] = molecular target: WT-CFTR (Homo sapiens, UniProt P13569); assay: Whole-cell patch clamp in CHO-K1 cells expressing WT-CFTR; format: cell-based; design: expressed in transfected cells; host or cells: CHO-K1; details: 30 μM isorhamnetin; linear current/voltage relationship
Experimental: Whole-cell, patch clamp recordings were performed on CFTR-expressing CHO cells. The bath solution contained (in mM) 140 NMDG-Cl, 1 CaCl2, 1 MgCl2, 10 glucose, and 10 HEPES (pH 7.4). The pipette solution contained (in mM) 130 CsCl, 0.5 EGTA, 1 MgCl2, 1 Tris-ATP, and 10 HEPES (pH 7.2). […] Seal resistances were between 3 and 10 GΩ. After establishing the whole-cell configuration, CFTR was activated by forskolin and/or isorhamnetin. […] Recordings were made at room temperature using an Axopatch-200B (Axon Instruments, San Jose, CA, USA). Currents were digitized with a Digidata 1440A converter (Axon Instruments), filtered at 5 kHz, and sampled at 1 kHz.

[5] = test system: conjunctival epithelial (ConjE) cells; assay: MTS cell viability assay in ConjE cells; format: cell-based, human; details: 48 h; isorhamnetin 30 μM, Triton X-100 0.01%
Experimental: Immortalized human CorE [47] and immortalized human ConjE (Innoprot, Bizkaia, Spain) cells were plated on 96-well microplates. After 24 h incubation, cells were treated with 30 μM isorhamnetin or 0.01% Triton X-100 and then they were incubated for two days. An equal amount of DMSO was added to the control. The culture medium and the compounds were changed every 12 h. To assess cell proliferation, after 48 h of incubation with the compound, the cells were reincubated with MTS for 1 h. The soluble formazan produced by cellular reduction of MTS was quantified by measuring the absorbance at 490 nm with Infinite M200 (Tecan, Grödig, Austria) microplate reader. MTS assay was done using CellTiter 96 AQueous One Solution Cell Proliferation Assay kit (Promega, Madison, WI, USA).

[6] = molecular target: T3, human ANO1 (Homo sapiens, UniProt Q5XXA6); assay: Apical membrane current in FRT cells expressing human ANO1; format: cell-based; details: 30 μM added 10 min prior to ANO1 activation by 100 μM ATP
T3 construct: expressed in transfected cells; host or cells: FRT cells (FRT-ANO1)
T3 sequence (Q5XXA6 1-986): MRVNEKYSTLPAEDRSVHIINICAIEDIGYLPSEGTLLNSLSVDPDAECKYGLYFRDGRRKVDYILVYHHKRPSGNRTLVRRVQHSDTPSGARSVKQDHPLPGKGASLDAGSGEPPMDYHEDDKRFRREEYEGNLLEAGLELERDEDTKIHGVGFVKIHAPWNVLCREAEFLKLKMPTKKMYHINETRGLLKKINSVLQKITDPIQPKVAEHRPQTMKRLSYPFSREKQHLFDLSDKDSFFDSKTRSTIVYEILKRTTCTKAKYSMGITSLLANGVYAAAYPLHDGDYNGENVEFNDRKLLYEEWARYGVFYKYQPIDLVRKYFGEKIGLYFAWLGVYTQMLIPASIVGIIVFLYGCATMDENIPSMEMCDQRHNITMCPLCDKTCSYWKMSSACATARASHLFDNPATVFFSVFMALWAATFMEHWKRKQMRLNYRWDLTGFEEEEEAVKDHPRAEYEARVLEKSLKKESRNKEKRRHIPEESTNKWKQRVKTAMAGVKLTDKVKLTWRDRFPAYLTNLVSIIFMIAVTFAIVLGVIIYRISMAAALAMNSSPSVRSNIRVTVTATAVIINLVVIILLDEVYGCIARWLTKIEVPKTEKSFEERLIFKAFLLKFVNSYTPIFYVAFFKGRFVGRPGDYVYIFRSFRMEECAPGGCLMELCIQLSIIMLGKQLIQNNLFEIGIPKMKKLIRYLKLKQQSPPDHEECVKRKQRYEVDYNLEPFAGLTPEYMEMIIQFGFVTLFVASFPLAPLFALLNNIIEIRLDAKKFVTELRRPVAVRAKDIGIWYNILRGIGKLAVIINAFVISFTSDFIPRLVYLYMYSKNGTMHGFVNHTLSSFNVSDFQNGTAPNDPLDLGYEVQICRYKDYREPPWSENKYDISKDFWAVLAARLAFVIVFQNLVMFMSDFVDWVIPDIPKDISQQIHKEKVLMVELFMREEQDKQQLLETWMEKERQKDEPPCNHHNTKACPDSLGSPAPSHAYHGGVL

[7] = molecular target: T4, CFTR (Mus musculus, UniProt P26361); assay: Open-circuit ocular surface potential difference (PD) in CD-1 mice; format: in vivo; details: 30 μM isorhamnetin, amiloride and low Cl- perfusion
T4 construct: from tissue; host or cells: ocular surface of anesthetized CD-1 mice (in vivo)
T4 sequence (P26361 whole entry, the tested form may be a part): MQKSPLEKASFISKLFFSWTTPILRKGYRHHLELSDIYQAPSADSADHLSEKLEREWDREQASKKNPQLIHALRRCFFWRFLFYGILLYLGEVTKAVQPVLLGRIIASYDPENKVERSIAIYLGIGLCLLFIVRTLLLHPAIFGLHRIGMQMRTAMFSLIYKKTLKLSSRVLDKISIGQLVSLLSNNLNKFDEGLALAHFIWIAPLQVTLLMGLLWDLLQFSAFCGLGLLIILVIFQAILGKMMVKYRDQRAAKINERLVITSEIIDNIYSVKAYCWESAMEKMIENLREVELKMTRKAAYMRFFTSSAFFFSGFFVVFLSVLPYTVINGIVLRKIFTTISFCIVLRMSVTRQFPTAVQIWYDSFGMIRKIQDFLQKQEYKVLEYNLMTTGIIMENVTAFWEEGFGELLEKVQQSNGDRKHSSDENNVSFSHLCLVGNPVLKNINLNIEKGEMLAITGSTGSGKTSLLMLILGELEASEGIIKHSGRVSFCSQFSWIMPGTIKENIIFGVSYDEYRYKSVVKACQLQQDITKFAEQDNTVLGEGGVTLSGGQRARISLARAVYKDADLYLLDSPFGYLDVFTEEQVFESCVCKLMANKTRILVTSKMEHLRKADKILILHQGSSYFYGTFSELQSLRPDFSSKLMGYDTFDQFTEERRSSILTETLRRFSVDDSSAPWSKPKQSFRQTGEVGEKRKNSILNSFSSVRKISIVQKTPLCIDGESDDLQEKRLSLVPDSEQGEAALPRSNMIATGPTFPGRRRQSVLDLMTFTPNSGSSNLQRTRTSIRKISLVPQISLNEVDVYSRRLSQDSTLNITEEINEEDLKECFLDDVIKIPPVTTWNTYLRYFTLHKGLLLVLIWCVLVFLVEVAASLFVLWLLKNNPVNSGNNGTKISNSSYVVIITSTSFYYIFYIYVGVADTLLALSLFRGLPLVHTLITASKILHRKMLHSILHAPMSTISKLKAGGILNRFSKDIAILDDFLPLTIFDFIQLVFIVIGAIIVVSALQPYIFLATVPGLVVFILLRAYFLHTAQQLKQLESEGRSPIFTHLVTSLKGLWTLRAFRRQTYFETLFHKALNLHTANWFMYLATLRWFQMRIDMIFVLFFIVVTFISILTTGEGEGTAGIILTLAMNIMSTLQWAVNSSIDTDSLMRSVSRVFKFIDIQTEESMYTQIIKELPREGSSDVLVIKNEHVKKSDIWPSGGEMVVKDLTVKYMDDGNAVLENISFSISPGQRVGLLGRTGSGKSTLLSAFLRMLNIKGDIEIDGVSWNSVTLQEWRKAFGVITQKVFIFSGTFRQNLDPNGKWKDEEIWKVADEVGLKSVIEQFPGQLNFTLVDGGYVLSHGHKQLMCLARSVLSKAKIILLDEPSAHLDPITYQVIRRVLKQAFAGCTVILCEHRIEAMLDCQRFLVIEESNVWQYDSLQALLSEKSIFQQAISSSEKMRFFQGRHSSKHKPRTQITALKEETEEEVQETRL

## COc1cc(-c2oc3cc(O)cc(O)c3c(=O)c2O)ccc1O [isorhamnetin]
[1]; 30 μM isorhamnetin
  ΔF508-CFTR chloride current activated by 20 μM forskolin: doubled
[1]; dose-dependent, ΔF508-CFTR rescued at 27 °C for 24 h
  forskolin-induced ΔF508-CFTR chloride current: strongly potentiated
[2]
  tear volume: significantly increased
[3]
  ENaC function (short-circuit current): did not alter
[4]
  CFTR Cl- currents (whole-cell): fully activated
[5]
  cell viability (MTS), ConjE cells: did not affect the cell viability
[6]
  ANO1 function (apical membrane current): did not alter
[7]
  ocular surface PD: significantly hyperpolarized
